Data: publication PMC8137473, “Preclinical trial of a MAP4K4 inhibitor to reduce infarct size in the pig: does cardioprotection in human stem cell-derived myocytes predict success in large mammals?” (Basic Research in Cardiology, 2021)

System: swine
Assay: pilot physiological study in healthy, chronically instrumented swine
Type: in vivo
Conditions: for LV dP/dtmin: in mmHg/s (unit assumed)
Protocol: Pilot physiological studies were performed in 2 female swine (45 and 85 kg), to confirm the lack of adverse effects from DMX-10001 in healthy myocardium. Animals were chronically instrumented as detailed below. Following a recovery week, animals received the pro-drug DMX-10001, while hemodynamics were recorded. Based on prior pharmacokinetic studies and modeling (Fig. 1b), two different dosing regimens were investigated, a three-step infusion (41 mg/kg/h, 0.5 h + 15.3 mg/kg/h, 2.5 h + 9.8 mg/kg/h, 5 h) versus a logistically simpler two-step approach (60 mg/kg/h, 0.5 h + 17 mg/kg/h, 23.5 h). During infusion of the pro-drug, blood was sampled to measure production of the active form, DMX-5804, by liquid chromatography–mass spectometry (Pharmidex, London, UK) as described.
A chronically instrumented animal received DMX-10001 for 8 h as shown, with a rapid initial infusion then stepwise decreasing concentrations over time. […] HR, heart rate; MAP, mean arterial pressure; CO, cardiac output; SV, stroke volume; SVR, systemic vascular resistance; dP/dtmax, maximal rate of rise in LV pressure; dP/dtmin, maximal rate of fall in LV pressure.
A chronically instrumented animal received DMX-10001 for 24 h as shown, starting with rapid infusion for half an hour then a lower concentration. […] HR, heart rate; MAP, mean arterial pressure; CO, cardiac output; SV, stroke volume; SVR, systemic vascular resistance; dP/dtmax, maximal rate of rise in LV pressure; dP/dtmin, maximal rate of fall in LV pressure.

[1] = animal 1, three-step infusion, 2 min
[2] = animal 1, three-step infusion, 10 min
[3] = animal 1, three-step infusion, 40 min
[4] = animal 1, three-step infusion, 1h
[5] = animal 1, three-step infusion, 2h
[6] = animal 1, three-step infusion, 3h
[7] = animal 1, three-step infusion, 4h
[8] = animal 1, three-step infusion, 6h
[9] = animal 1, three-step infusion, 8h
[10] = animal 1, three-step infusion, 8h 2 min
[11] = animal 1, three-step infusion, 8h 10 min
[12] = animal 1, three-step infusion, 8h 30 min
[13] = animal 1, three-step infusion, Baseline
[14] = animal 2, two-step infusion, 2 min
[15] = animal 2, two-step infusion, 10min
[16] = animal 2, two-step infusion, 30 min
[17] = animal 2, two-step infusion, 40 min
[18] = animal 2, two-step infusion, 2h
[19] = animal 2, two-step infusion, 24h
[20] = animal 2, two-step infusion, 24h 2 min
[21] = animal 2, two-step infusion, 24h 10 min
[22] = animal 2, two-step infusion, 24h 30 min
[23] = animal 2, two-step infusion, 25h
[24] = animal 2, two-step infusion, Baseline

## COCCOc1ccc(-c2cn(-c3ccccc3)c3ncn(COP(=O)(O)O)c(=O)c23)cc1 [DMX-10001]
[1]
  CO: 11.2 L/min
  HR: 116 bpm
  LV dP/dtmax: 4070 mmHg/s
  MAP: 96 mmHg
  SV: 97 mL
  SVR: 8.6 mmHg/L/min
  LV dP/dtmin: -2280
[2]
  CO: 11.1 L/min
  HR: 112 bpm
  LV dP/dtmax: 3290 mmHg/s
  MAP: 88 mmHg
  SV: 99 mL
  SVR: 7.9 mmHg/L/min
  LV dP/dtmin: -2280
[3]
  CO: 10.1 L/min
  HR: 105 bpm
  LV dP/dtmax: 4060 mmHg/s
  MAP: 99 mmHg
  SV: 96 mL
  SVR: 9.8 mmHg/L/min
  LV dP/dtmin: -2530
[4]
  CO: 10.7 L/min
  HR: 115 bpm
  LV dP/dtmax: 4040 mmHg/s
  MAP: 103 mmHg
  SV: 93 mL
  SVR: 9.7 mmHg/L/min
  LV dP/dtmin: -2690
[5]
  CO: 11.4 L/min
  HR: 106 bpm
  LV dP/dtmax: 4840 mmHg/s
  MAP: 107 mmHg
  SV: 108 mL
  SVR: 9.4 mmHg/L/min
  LV dP/dtmin: -3270
[6]
  CO: 13.0 L/min
  HR: 120 bpm
  LV dP/dtmax: 6030 mmHg/s
  MAP: 117 mmHg
  SV: 108 mL
  SVR: 9.0 mmHg/L/min
  LV dP/dtmin: -3330
[7]
  CO: 12.0 L/min
  HR: 113 bpm
  LV dP/dtmax: 5260 mmHg/s
  MAP: 120 mmHg
  SV: 106 mL
  SVR: 10 mmHg/L/min
  LV dP/dtmin: -3020
[8]
  CO: 12.9 L/min
  HR: 134 bpm
  LV dP/dtmax: 5430 mmHg/s
  MAP: 105 mmHg
  SV: 96 mL
  SVR: 8.2 mmHg/L/min
  LV dP/dtmin: -2830
[9]
  CO: 11.8 L/min
  HR: 111 bpm
  LV dP/dtmax: 5020 mmHg/s
  MAP: 95 mmHg
  SV: 106 mL
  SVR: 8.0 mmHg/L/min
  LV dP/dtmin: -2920
[10]
  CO: 11.1 L/min
  HR: 105 bpm
  LV dP/dtmax: 4550 mmHg/s
  MAP: 92 mmHg
  SV: 106 mL
  SVR: 8.3 mmHg/L/min
  LV dP/dtmin: -2820
[11]
  CO: 11.4 L/min
  HR: 105 bpm
  LV dP/dtmax: 4730 mmHg/s
  MAP: 102 mmHg
  SV: 109 mL
  SVR: 8.9 mmHg/L/min
  LV dP/dtmin: -3300
[12]
  CO: 14.3 L/min
  HR: 127 bpm
  LV dP/dtmax: 5740 mmHg/s
  MAP: 101 mmHg
  SV: 113 mL
  SVR: 7.1 mmHg/L/min
  LV dP/dtmin: -3190
[13]
  CO: 11.1 L/min
  HR: 117 bpm
  LV dP/dtmax: 3470 mmHg/s
  MAP: 94 mmHg
  SV: 95 mL
  SVR: 8.5 mmHg/L/min
  LV dP/dtmin: -2500
[14]
  CO: 9.7 L/min
  HR: 116 bpm
  LV dP/dtmax: 5860 mmHg/s
  MAP: 80 mmHg
  SV: 84 mL
  SVR: 8.2 mmHg/L/min
  LV dP/dtmin: -4170
[15]
  CO: 6.9 L/min
  HR: 90 bpm
  LV dP/dtmax: 3400 mmHg/s
  MAP: 83 mmHg
  SV: 76 mL
  SVR: 12.1 mmHg/L/min
  LV dP/dtmin: -3670
[16]
  CO: 6.7 L/min
  HR: 92 bpm
  LV dP/dtmax: 3420 mmHg/s
  MAP: 84 mmHg
  SV: 72 mL
  SVR: 12.7 mmHg/L/min
  LV dP/dtmin: -3430
[17]
  CO: 6.1 L/min
  HR: 83 bpm
  LV dP/dtmax: 3680 mmHg/s
  MAP: 90 mmHg
  SV: 73 mL
  SVR: 14.8 mmHg/L/min
  LV dP/dtmin: -3640
[18]
  CO: 7.2 L/min
  HR: 91 bpm
  LV dP/dtmax: 4250 mmHg/s
  MAP: 94 mmHg
  SV: 79 mL
  SVR: 13.1 mmHg/L/min
  LV dP/dtmin: -4120
[19]
  CO: 8.7 L/min
  HR: 107 bpm
  LV dP/dtmax: 4260 mmHg/s
  MAP: 89 mmHg
  SV: 82 mL
  SVR: 10.2 mmHg/L/min
  LV dP/dtmin: -3380
[20]
  CO: 9.1 L/min
  HR: 111 bpm
  LV dP/dtmax: 5090 mmHg/s
  MAP: 72 mmHg
  SV: 82 mL
  SVR: 7.9 mmHg/L/min
  LV dP/dtmin: -3740
[21]
  CO: 7.0 L/min
  HR: 87 bpm
  LV dP/dtmax: 3950 mmHg/s
  MAP: 97 mmHg
  SV: 80 mL
  SVR: 13.9 mmHg/L/min
  LV dP/dtmin: -4120
[22]
  CO: 7.7 L/min
  HR: 92 bpm
  LV dP/dtmax: 4810 mmHg/s
  MAP: 144 mmHg
  SV: 83 mL
  SVR: 18.9 mmHg/L/min
  LV dP/dtmin: -4140
[23]
  CO: 9.1 L/min
  HR: 115 bpm
  LV dP/dtmax: 5360 mmHg/s
  MAP: 153 mmHg
  SV: 79 mL
  SVR: 16.8 mmHg/L/min
  LV dP/dtmin: -4460
[24]
  CO: 7.8 L/min
  HR: 101 bpm
  LV dP/dtmax: 3800 mmHg/s
  MAP: 77 mmHg
  SV: 77 mL
  SVR: 10.0 mmHg/L/min
  LV dP/dtmin: -3040
Pilot studies of two healthy animals
  adverse effect on hemodynamics or LV function: No adverse effect
